Assay results reported in patent EP2138545B1, “USE OF PORPHYRAZINE DERIVATIVE AS SEMICONDUCTOR” (Hiroshima University, priority 2007, dated 2008).
≈ marks a conversion by molar mass, not a printed value. Like-named read-outs stand apart in the source and are kept apart here.

Assay: Measurement of solubility in chloroform and in dichloromethane (solvent added by 0.1 mL until the whole amount dissolved)
Type: physicochemical
Details: for solubility: organic solvent or mixture, thermodynamic from solid
Method: Respective compounds indicated by "6" and "7" were subjected to measurements of solubility in chloroform and in dichloromethane. In the measurements, approximately 3mg of a compound was prepared in advance by a precise weighing. Then, a solvent was added by 0.1mL to the compound and thereafter stirred or subjected to ultrasonic agitation. The solubility (mg/mL) was determined from an amount of the solvent used in dissolving a whole amount of the compound.

SMILES | solubility in chloroform (solvent chloroform) [µg/mL] | solubility in dichloromethane (solvent dichloromethane) [µg/mL] | solubility (solvent chloroform, read-out: solubility in chloroform) [µg/mL] | solubility (solvent dichloromethane, read-out: solubility in dichloromethane) [µg/mL]
CCCCCCc1cc2c(s1)-c1nc-2nc2[nH]c(nc3nc(nc4[nH]c(n1)c1cc(CCCCCC)sc41)-c1cc(CCCCCC)sc1-3)c1cc(CCCCCC)sc21 [compound 6, Tetra(hexylthieno)porphyrazine] | 29000 (≈ 33100 µM) |  |  | 
CCCCCCc1cc2c(s1)C1=NC2=Nc2c3sc(CCCCCC)cc3c3[n]2[Cu][n]2c(c4cc(CCCCCC)sc4c2=NC2=NC(=N3)c3sc(CCCCCC)cc32)=N1 [compound 7, Copper (II) complex] | 11000 | 10000 |  | 
c1cc2c(s1)-c1nc-2nc2[nH]c(nc3nc(nc4[nH]c(n1)c1ccsc41)-c1ccsc1-3)c1ccsc21 [unsubstituted phthalocyanine derivative, reference compound] |  |  | < 20 | < 20
